Tests used:
Assay type in all cases: cell-based
[1] = system: CD36-positive cells (COS-7 transfected with pCD36); experiment: CD36-binding assay
Procedure: LNCaP cells were cultured in the presence or absence of soraphen and/or palmitic acid for 72 hr. The cells were exposed to H2O2 (300 μM) for 30 min. Cells were trypsinized and labeled with Cell Tracker Dye Orange CMRA (C34551). The labeled LNCaP cells (1.5×10^5) were subsequently layered over a monolayer of COS-7 cells, which were cultured on glass coverslips and transfected with a CD36-encoding construct (pCD36) or the corresponding empty vector (pEF-BOS) (both kindly provided by R. Thorne, University of Newcastle, Australia). Cells were co-cultured in 1 ml of RPMI medium for 1 hr at 37° C. After extensive washing, the cultures were fixed and imaged. The fluorescence signal of the CellTracker Dye was measured using Adobe Photoshop software (San Jose, Calif.).

[2] = system: fatty acid synthesis in LNCaP cells; experiment: 2-14C-acetate incorporation assay and TLC analysis; conditions: soraphen 24 hours, 2-14C-acetate last 4 hours
Procedure: LNCaP cells were treated with soraphen or vehicle (ethanol) for 24 hours. The last 4 hours, 2-^14C-labeled acetate (57 mCi/mmol; 2 μCi/dish; Amersham International, Aylesbury, UK) was added to the culture medium. Lipids were extracted according to a modified Bligh-Dyer method as previously described (De Schrijver et al., 2003). To analyze the incorporation of 2-^14C-acetate into different lipid classes, TLC analysis was performed and the lipids were exposed to a PhosphorImager screen for quantification (Molecular Dynamics, Sunnyvale, Calif.), as previously described (De Schrijver et al., 2003).

LNCaP cells [3] = experiment: Cell death assay (trypan blue dye exclusion)
From the text: At the indicated time after exposure to soraphen and/or other compounds, the adherent and floating cells were collected by trypsinization and centrifugation and both cell populations were combined.

LNCaP cells [4] = experiment: Doxorubicin accumulation (fluorescence microscopy and fluorimetry); conditions: soraphen 100 nM 72 hr, doxorubicin 10 μM 30 min
Procedure: To visualize the intracellular doxorubicin accumulation, doxorubicin was added at a final concentration of 10 μM. After 30 min, the cells were analyzed using a fluorescence microscope (515 nm longpass emission filter) and the LIDA software (Leica Microsystems GmbH).
To measure doxorubicin accumulation fluorimetrically, cells were exposed to 10 μM of doxorubicin for 30 min, washed in PBS, lysed in 0.3 M HCl in 50% ethanol (v:v), and centrifuged at 700 g for 5 min. The fluorescence of doxorubicin was measured at an excitation wavelength of 490 nm and an emission wavelength of 580 nm. Where indicated, media were supplemented with palmitic acid.

LNCaP cells [5] = experiment: Lipid peroxidation product assay
Procedure: Equal amounts of cells were scraped in ice-cold PBS, kept on ice for 15 min, and then sonicated (10 bursts). After centrifugation at 3,000 g for 10 min, the supernatants were analyzed using a lipid peroxidation assay kit (Oxford Biomedical Research, Oxford, Mich.) that quantifies the amount of malondialdehydes and 4-hydroxyalkenals, which are generated from fatty acid peroxide decomposition.

LNCaP cells [6] = experiment: Doxorubicin flip-flop rate (NBD-PE quenching); conditions: soraphen 100 nM 72 hr, doxorubicin 10 μM, similar with verapamil 100 μM
Procedure: To measure the flip-flop rate of doxorubicin, cells were treated with soraphen or vehicle for 72 hr. During the last 24 hr of treatment, 10 μM of NBD-phosphatidylethanolamine (NBD-PE; Invitrogen) was added. Verapamil was added at a concentration of 100 μM 1 hr prior to harvesting the cells by trypsinization. The doxorubicin flip-flop rate across the plasma membrane was measured as the reduction in fluorescence of NBD due to quenching of NBD-PE by doxorubicin (Regev et al., 2005) (See Supplemental Methods for details).

LNCaP cells [7] = experiment: Analysis of intact phospholipid species by ESI-MS/MS; conditions: soraphen 100 nM, 72 hr, versus vehicle
Procedure: To prepare lipid extracts for ESI-MS/MS analysis, the tissue or cells were homogenized in 1.6 ml of 0.1 N HCl:CH3OH 1:1 (v/v). CHCl3 (0.8 ml) and 200 μg/ml of the anti-oxidant 2,6-di-tert-butyl-4-methylphenol (Sigma) were added (Milne et al., 2006). After addition of the lipid standards, the organic fractions were collected by centrifugation at 200 g for 5 min. Samples were evaporated and reconstituted in CH3OH:CHCl3:NH4OH (90:10:1.25, v/v/v) and the lipids were analyzed by electrospray ionization tandem mass spectrometry (ESI-MS/MS) on a hybrid quadrupole linear ion trap mass spectrometer (4000 QTRAP system; Applied Biosystems, Foster City, Calif.) equipped with a robotic nanoflow/ion source (Advion Biosciences). The system was operated in the MRM mode for quantification of individual species. Data were expressed as fold change relative to the control samples (untreated cells or matched normal tissue) and were presented as heatmaps using the Heatmap Builder software (Clifton Watt, Stanford University, USA).

CO[C@H]1CCCC[C@@H](c2ccccc2)OC(=O)[C@@H](C)[C@@]2(O)O[C@H]([C@@H](C)[C@H](O)[C@H]2OC)[C@@H](C)/C=C/[C@H]1OC [soraphen, Soraphen A]
number of CD36-bound LNCaP cells ([1]; soraphen 100 nM 72 hr followed by 300 μM H2O2 for 30 min): substantially increased | inhibition of fatty acid synthesis / de novo lipogenesis by 2-14C-acetate incorporation [2]: Inhibition of fatty acid synthesis, and as such de novo lipogenesis was confirmed | cell death in response to H2O2 (LNCaP cells [3]; soraphen 100 nM 72 hr, 300 μM H2O2 last 24 hr): markedly increased | cell death (LNCaP cells [3]; soraphen alone 100 nM 72 hr): up to 20% | intracellular accumulation of doxorubicin (LNCaP cells [4]): significant increase | levels of lipid peroxidation products (LNCaP cells [5]; soraphen 100 nM, 72 hr): significantly increased | increase in the flip-flop rate of doxorubicin (LNCaP cells [6]): six-fold | decrease of PC species with one degree of unsaturation (LNCaP cells [7]): up to four-fold | effect on PC species with two unsaturations (LNCaP cells [7]): ambiguous or minor net effect | increase of PC species with more unsaturations (>three) (LNCaP cells [7]): up to eight-fold

COc1cccc2c1C(=O)c1c(O)c3c(c(O)c1C2=O)C[C@@](O)(C(=O)CO)C[C@@H]3O[C@H]1C[C@H](N)[C@H](O)[C@H](C)O1 [doxorubicin]
cell death (LNCaP cells [3]; standard culture, doxorubicin 4 μM last 24 hr): 8%

CCCCCCCCCCCCCCCC(=O)O [palmitic acid]
effect on soraphen-induced increase of CD36-bound LNCaP cells ([1]; soraphen 100 nM 72 hr, 300 μM H2O2 30 min, exogenous palmitic acid 75 μM): counteracted these effects | effect on soraphen-sensitized H2O2-induced cell death (rescue) (LNCaP cells [3]; soraphen 100 nM 72 hr, 300 μM H2O2 last 24 hr, fatty acid supplement 75 μM): counteracted | effect on soraphen/doxorubicin-induced cell death (LNCaP cells [3]; soraphen 100 nM, doxorubicin 4 μM, palmitic acid 75 μM): largely rescued the cells from death | effect on soraphen-induced doxorubicin accumulation (LNCaP cells [4]; palmitic acid 75 μM): counteracted the effects of soraphen | effect on soraphen/H2O2-induced increase in lipid peroxidation products (LNCaP cells [5]; soraphen 100 nM 72 hr, 200 μM H2O2 last 2 hr, exogenous palmitic acid 75 μM): largely reversed these changes

Reference: patent US20130115618A1, “PHOSPHOLIPID PROFILING AND CANCER” (KATHOLIEKE UNIVERSITEIT LEUVEN, priority 2010, published 2013)
